From US11203601B2, “Tricyclic compounds as glycogen synthase kinase 3 (GSK3) inhibitors and uses thereof” (The Broad Institute, Inc., priority 2017, dated 2021)

Tests used:
Assay in all cases: Carna kinome panel
Format in all cases: biochemical
Conditions in all cases: read-out: % Inhibition at 10 μM of the test compound
CK2α1/β = CK2α1/β (Homo sapiens (Human), UniProt P68400)
Description: Briefly, a selection of compounds was screened against a panel of kinases at a single concentration of 10 μM. […] This was completed using one of two assays, depending on the kinase being examined: 1) IMAP Assay. A solution of 4× inhibitor, 4× substrate/ATP/metal solution and 2× kinase solution was prepared with assay buffer (20 mM HEPES, 0.01% Tween-20, 2 mM DTT, pH 7.4) and mixed, then incubated in 384-well black plates for 1 hour at room temperature. The IMAP binding reagent (IMAP Screening Express kit; Molecular Devices) was added to each well and incubated for 30 minutes. […] 2) Off-Chip Mobility Shift Assay (MSA). A solution of 4× inhibitor, 4× substrate/ATP/metal solution and 2× kinase solution was prepared with assay buffer (20 mM HEPES, 0.01% Triton X-100, 2 mM DTT, pH 7.5) and mixed, then incubated in 384-well plates for 1 or 5 hours depending on the kinase, at room temperature. Termination buffer (QuickScout Screening assist MSA; Carna Biosciences) was added to each well. The entire reaction mixture was then applied to a LabChip3000 system (Caliper Life Science), and the product and substrate peptide peaks were separated and quantified. […] The entire reaction mixture was then applied to a LabChip3000 system (Caliper Life Science), and the product and substrate peptide peaks were separated and quantified.

MSSK1 = MSSK1 (Homo sapiens (Human), UniProt Q9UPE1)
MAP3K2_Cascade = MAP3K2_Cascade (Homo sapiens (Human), UniProt Q9Y2U5)
NPM1-ALK = NPM1-ALK (Homo sapiens (Human), UniProt P06748+Q9UM73)
MET(M1250T) = MET(M1250T) (Homo sapiens (Human), UniProt P08581, M1250T)
PHKG1 = PHKG1 (Homo sapiens (Human), UniProt Q16816)
TNIK = TNIK (Homo sapiens (Human), UniProt Q9UKE5)
FGFR1 = FGFR1 (Homo sapiens (Human), UniProt P11362)
HIPK1 = HIPK1 (Homo sapiens (Human), UniProt Q86Z02)
AXL = AXL (Homo sapiens (Human), UniProt P30530)
Sequence of AXL (P30530 26-894): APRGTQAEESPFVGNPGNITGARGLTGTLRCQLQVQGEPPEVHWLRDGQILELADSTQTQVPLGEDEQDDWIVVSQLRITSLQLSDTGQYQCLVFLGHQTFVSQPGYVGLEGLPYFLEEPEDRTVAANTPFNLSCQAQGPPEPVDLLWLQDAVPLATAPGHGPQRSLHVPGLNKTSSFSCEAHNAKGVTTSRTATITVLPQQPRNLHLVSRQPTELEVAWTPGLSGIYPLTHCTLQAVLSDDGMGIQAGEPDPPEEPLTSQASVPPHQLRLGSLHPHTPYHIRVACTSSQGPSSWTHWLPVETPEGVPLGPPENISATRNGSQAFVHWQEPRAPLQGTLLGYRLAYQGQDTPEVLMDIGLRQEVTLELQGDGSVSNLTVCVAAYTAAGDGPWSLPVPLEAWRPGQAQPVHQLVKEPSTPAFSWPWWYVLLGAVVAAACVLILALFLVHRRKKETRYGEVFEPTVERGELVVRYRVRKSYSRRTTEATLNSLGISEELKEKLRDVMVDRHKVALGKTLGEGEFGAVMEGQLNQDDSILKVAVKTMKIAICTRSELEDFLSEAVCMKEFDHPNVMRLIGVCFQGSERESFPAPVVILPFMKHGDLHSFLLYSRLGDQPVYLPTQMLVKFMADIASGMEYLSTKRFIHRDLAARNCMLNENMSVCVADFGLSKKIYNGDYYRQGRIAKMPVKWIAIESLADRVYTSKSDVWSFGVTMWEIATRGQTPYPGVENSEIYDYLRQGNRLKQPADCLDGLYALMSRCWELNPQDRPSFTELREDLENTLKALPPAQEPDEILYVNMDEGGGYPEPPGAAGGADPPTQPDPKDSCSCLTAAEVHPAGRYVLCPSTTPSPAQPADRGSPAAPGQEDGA

PKCγ = PKCγ (Homo sapiens (Human), UniProt P05129)
CaMK2δ = CaMK2δ (Homo sapiens (Human), UniProt Q13557)
LOK = LOK (Homo sapiens (Human), UniProt O94804)
SGK2 = SGK2 (Homo sapiens (Human), UniProt Q9HBY8)
PKD2 = PKD2 (Homo sapiens (Human), UniProt Q9BZL6)
TRKC = TRKC (Homo sapiens (Human), UniProt Q16288)
Sequence of TRKC (Q16288 32-839): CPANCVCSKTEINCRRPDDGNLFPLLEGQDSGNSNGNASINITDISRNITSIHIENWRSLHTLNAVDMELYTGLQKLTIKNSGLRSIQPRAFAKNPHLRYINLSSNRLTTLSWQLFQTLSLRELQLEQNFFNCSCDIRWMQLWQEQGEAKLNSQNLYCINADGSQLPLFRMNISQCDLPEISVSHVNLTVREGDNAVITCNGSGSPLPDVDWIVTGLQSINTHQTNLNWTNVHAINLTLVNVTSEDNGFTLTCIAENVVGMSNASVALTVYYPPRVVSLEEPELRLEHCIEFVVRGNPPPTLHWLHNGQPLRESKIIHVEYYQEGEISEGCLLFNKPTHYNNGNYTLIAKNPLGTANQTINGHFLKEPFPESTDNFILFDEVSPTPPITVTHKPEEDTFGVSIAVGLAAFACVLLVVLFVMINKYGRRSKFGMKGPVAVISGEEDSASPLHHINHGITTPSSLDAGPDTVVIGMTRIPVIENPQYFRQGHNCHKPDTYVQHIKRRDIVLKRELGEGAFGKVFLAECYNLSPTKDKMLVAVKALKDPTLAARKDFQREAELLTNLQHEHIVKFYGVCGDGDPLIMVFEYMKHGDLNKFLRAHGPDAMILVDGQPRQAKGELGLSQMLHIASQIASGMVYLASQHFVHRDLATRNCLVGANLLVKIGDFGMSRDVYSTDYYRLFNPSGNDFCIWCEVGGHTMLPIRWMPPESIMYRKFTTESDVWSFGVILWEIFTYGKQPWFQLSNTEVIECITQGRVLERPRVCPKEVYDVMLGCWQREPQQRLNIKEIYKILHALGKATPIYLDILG

BRAF(V600E)_Cascade = BRAF(V600E)_Cascade (Homo sapiens (Human), UniProt P15056, V600E)
MELK = MELK (Homo sapiens (Human), UniProt Q14680)
PYK2 = PYK2 (Homo sapiens (Human), UniProt Q14289)
FRK = FRK (Homo sapiens (Human), UniProt P42685)
TSSK3 = TSSK3 (Homo sapiens (Human), UniProt Q96PN8)
AKT1 = AKT1 (Homo sapiens (Human), UniProt P31749)
PLK1 = PLK1 (Homo sapiens (Human), UniProt P53350)
CDK5/p25 = CDK5/p25 (Homo sapiens (Human), UniProt Q00535)
NuaK1 = NuaK1 (Homo sapiens (Human), UniProt O60285)
JAK2 = JAK2 (Homo sapiens (Human), UniProt O60674)
MET(D1228H) = MET(D1228H) (Homo sapiens (Human), UniProt P08581, D1228H)
PDGFRα(T674I) = PDGFRα(T674I) (Homo sapiens (Human), UniProt P16234, T674I)
MET(Y1235D) = MET(Y1235D) (Homo sapiens (Human), UniProt P08581, Y1235D)
CaMK2β = CaMK2β (Homo sapiens (Human), UniProt Q13554)
EGFR(L861Q) = EGFR(L861Q) (Homo sapiens (Human), UniProt P00533, L861Q)
SRPK1 = SRPK1 (Homo sapiens (Human), UniProt Q96SB4)
Sequence of SRPK1 (Q96SB4 whole entry): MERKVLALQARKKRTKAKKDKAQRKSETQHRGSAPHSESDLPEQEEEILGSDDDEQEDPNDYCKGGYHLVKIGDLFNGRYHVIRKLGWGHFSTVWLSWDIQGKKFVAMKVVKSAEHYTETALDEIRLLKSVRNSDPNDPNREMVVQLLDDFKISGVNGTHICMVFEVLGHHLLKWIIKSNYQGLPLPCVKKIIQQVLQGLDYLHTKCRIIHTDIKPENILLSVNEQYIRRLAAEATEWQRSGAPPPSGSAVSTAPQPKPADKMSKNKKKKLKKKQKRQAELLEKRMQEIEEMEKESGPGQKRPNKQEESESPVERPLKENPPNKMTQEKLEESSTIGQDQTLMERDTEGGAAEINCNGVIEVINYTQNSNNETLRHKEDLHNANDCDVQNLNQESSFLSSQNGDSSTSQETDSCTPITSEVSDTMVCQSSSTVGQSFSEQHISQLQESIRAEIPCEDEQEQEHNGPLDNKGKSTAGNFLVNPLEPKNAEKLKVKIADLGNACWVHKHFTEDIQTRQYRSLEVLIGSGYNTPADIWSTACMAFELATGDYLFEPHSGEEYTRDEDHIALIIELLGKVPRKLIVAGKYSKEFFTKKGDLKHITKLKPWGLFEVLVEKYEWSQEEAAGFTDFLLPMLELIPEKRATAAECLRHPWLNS

WNK3 = WNK3 (Homo sapiens (Human), UniProt Q9BYP7)
JNK3 = JNK3 (Homo sapiens (Human), UniProt P53779)
Sequence of JNK3 (P53779 whole entry): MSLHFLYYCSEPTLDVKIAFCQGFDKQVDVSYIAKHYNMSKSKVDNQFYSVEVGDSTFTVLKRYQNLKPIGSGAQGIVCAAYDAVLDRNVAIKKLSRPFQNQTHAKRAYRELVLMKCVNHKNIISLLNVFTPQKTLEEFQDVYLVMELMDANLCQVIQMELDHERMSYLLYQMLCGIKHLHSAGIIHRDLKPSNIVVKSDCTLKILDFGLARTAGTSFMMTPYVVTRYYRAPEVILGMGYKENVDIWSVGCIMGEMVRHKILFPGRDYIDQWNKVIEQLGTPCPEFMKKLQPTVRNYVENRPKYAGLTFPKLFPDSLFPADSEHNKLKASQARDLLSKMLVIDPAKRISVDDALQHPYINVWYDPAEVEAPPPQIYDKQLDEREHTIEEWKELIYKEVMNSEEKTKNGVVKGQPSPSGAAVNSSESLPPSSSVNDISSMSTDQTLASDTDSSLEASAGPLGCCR

CRIK = CRIK (Homo sapiens (Human), UniProt O14578)
TBK1 = TBK1 (Homo sapiens (Human), UniProt Q9UHD2)
HIPK3 = HIPK3 (Homo sapiens (Human), UniProt Q9H422)
CK1γ3 = CK1γ3 (Homo sapiens (Human), UniProt Q9Y6M4)
Sequence of CK1γ3 (Q9Y6M4 whole entry): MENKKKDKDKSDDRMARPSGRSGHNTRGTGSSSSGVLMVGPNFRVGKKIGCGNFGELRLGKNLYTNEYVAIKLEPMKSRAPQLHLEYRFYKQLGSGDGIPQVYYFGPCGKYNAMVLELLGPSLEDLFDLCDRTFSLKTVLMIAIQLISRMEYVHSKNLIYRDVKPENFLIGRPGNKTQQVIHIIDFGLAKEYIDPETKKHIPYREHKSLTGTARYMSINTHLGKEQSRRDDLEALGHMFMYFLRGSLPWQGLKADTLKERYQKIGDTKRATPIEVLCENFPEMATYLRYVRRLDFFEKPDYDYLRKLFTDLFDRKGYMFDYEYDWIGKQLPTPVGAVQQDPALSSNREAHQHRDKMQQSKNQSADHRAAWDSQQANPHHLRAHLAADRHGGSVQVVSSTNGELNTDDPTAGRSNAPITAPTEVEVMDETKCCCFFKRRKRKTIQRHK

MST4 = MST4 (Homo sapiens (Human), UniProt Q9P289)
Sequence of MST4 (Q9P289 whole entry): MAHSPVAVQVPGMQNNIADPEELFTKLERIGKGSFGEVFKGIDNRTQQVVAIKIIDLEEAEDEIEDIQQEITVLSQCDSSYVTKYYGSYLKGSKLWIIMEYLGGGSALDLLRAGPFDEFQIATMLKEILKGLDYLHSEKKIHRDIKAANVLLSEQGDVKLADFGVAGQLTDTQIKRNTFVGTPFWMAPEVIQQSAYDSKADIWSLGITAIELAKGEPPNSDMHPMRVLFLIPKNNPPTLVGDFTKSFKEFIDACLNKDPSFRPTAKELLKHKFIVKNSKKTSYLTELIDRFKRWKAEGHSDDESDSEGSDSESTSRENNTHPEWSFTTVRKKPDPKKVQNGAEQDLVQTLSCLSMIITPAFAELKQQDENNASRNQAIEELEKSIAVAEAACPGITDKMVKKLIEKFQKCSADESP

DDR1 = DDR1 (Homo sapiens (Human), UniProt Q08345)

Sequence of CK2α1/β (P68400 whole entry, looked up): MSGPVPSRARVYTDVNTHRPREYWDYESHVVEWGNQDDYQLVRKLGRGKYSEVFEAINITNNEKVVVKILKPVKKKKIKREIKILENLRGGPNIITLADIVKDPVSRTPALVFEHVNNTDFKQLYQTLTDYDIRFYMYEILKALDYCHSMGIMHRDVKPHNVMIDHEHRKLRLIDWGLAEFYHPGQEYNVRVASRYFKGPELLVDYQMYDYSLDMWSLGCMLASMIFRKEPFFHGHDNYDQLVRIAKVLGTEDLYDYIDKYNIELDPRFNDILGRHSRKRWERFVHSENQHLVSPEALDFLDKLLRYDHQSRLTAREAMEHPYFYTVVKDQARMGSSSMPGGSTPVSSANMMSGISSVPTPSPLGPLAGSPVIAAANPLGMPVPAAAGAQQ
Sequence of CK2α1/β (P67870 whole entry partner, looked up): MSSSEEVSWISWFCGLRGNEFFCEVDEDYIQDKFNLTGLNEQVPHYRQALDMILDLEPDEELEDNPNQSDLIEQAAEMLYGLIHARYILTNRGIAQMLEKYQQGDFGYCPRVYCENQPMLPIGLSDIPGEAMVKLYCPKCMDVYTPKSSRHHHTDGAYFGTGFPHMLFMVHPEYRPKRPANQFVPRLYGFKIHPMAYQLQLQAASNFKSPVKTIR

With `CCC1(c2ccccc2)C2=C(CC(C)(C)CC2=O)Nc2ncsc21` (stereo not shown) [Compound 1, 9-Ethyl-6,6-dimethyl-9-phenyl-5,6,7,9-tetrahydrothiazolo[4,5-b]quinolin-8(4H)-one] the inhibition at 10 µM (CK2α1/β) was -3.7%, the inhibition at 10 µM (MSSK1) was 1.2% and the inhibition at 10 µM (MAP3K2_Cascade) was 3.4%. It also gave an inhibition at 10 µM (NPM1-ALK) of -7.5%, an inhibition at 10 µM (MET(M1250T)) of -4.2% and an inhibition at 10 µM (PHKG1) of 5.9%. The inhibition at 10 µM (TNIK) was 8.6%, the inhibition at 10 µM (FGFR1) was -5% and the inhibition at 10 µM (HIPK1) was 0.3%. The inhibition at 10 µM (AXL) was 6.5%, the inhibition at 10 µM (PKCγ) was -7.7% and the inhibition at 10 µM (CaMK2δ) was -8.6%. The inhibition at 10 µM (LOK) was -4.7%, the inhibition at 10 µM (SGK2) was -8.7% and the inhibition at 10 µM (PKD2) was -13.8%. For the same compound, the inhibition at 10 µM (TRKC) was 0.4%, the inhibition at 10 µM (BRAF(V600E)_Cascade) was 6.1% and the inhibition at 10 µM (MELK) was 1.6%. The inhibition at 10 µM (PYK2) was -3.1%, the inhibition at 10 µM (FRK) was 8.4% and the inhibition at 10 µM (TSSK3) was -5.1%. The inhibition at 10 µM (AKT1) was 0.7%, the inhibition at 10 µM (PLK1) was -5.3% and the inhibition at 10 µM (CDK5/p25) was 41.2%. The inhibition at 10 µM (NuaK1) was -9.2%, the inhibition at 10 µM (JAK2) was -0.9% and the inhibition at 10 µM (MET(D1228H)) was -7.7%. It also gave an inhibition at 10 µM (PDGFRα(T674I)) of 0.3%, an inhibition at 10 µM (MET(Y1235D)) of -12.2% and an inhibition at 10 µM (CaMK2β) of 2.8%. The inhibition at 10 µM (EGFR(L861Q)) was -6.1%, the inhibition at 10 µM (SRPK1) was -0.3% and the inhibition at 10 µM (WNK3) was 0.3%. The inhibition at 10 µM (JNK3) was 3.1%, the inhibition at 10 µM (CRIK) was 1.6% and the inhibition at 10 µM (TBK1) was -5.3%. It also gave an inhibition at 10 µM (HIPK3) of -1.9%, an inhibition at 10 µM (CK1γ3) of 1.5% and an inhibition at 10 µM (MST4) of -3.3%. For the same compound, the inhibition at 10 µM (DDR1) was 1.4%.
